Experimental data from patent US10052306B2 (LUC THERAPEUTICS, INC., priority 2013, dated 2018).

Legend:
[1] = target: NR1/NR2B (Homo sapiens (Human), UniProt Q05586+Q13224); assay: Cell assay: FDSS Ca2+ influx inhibition in HEK293 cells expressing NR1/NR2B; conditions: Binned Activity, HEK293 cells expressing NR1/NR2B, Ca2+ influx; binned NR2B NAM IC50;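 further: Fluo-8 Ca2+ signal read on Hamamatsu FDSS 6000 after glutamate, glycine and Ca2+ challenge following 10 min compound preincubation, end/baseline fluorescence ratio compared with MK801 control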
NR1/NR2B (Homo sapiens (Human), UniProt Q05586+Q13224), sequence (Q13224 27-1484, other chains not shown): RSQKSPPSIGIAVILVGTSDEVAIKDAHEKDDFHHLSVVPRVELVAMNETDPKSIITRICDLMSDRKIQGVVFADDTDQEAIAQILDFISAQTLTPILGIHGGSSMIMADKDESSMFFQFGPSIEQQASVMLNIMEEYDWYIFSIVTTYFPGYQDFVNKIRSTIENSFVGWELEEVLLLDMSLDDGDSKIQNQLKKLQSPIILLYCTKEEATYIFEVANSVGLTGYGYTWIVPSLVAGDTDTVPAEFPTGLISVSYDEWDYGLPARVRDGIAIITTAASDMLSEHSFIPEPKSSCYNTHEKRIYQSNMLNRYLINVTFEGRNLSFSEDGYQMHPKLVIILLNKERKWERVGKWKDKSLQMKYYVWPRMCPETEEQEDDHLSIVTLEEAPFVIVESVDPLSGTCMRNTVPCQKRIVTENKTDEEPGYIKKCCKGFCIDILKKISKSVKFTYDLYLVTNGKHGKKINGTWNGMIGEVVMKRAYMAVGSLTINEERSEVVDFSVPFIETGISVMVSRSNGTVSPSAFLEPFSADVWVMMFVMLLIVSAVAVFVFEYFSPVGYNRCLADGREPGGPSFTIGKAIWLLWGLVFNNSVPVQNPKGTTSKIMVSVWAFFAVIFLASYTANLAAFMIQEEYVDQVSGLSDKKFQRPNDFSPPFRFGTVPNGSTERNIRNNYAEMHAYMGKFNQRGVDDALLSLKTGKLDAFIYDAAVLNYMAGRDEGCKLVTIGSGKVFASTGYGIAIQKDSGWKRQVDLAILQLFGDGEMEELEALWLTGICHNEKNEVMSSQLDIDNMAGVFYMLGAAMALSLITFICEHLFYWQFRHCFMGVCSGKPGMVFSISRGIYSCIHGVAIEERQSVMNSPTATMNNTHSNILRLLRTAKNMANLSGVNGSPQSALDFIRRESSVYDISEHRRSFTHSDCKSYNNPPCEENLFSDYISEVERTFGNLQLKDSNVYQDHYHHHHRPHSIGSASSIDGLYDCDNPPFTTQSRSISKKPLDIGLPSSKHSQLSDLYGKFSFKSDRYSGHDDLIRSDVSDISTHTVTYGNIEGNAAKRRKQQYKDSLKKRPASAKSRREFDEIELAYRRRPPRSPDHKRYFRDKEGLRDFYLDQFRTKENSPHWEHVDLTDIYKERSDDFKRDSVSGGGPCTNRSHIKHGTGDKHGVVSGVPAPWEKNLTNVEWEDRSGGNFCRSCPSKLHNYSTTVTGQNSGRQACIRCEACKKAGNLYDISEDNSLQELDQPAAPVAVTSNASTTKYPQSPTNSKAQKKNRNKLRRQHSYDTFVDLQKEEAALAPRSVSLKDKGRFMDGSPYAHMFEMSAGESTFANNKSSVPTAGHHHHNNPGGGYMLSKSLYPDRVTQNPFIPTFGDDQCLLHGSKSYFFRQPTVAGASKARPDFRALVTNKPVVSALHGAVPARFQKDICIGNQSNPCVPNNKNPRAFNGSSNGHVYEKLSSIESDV

[2] = target: NR1/NR2B (Homo sapiens (Human), UniProt Q13224); assay: as above; conditions: read-out: NR2B NAM IC50; HEK293 cells expressing NR1/NR2B, Ca2+ influx
NR1/NR2B (Homo sapiens (Human), UniProt Q13224), sequence (Q13224 27-1484, other chains not shown): as above

Compound	IC50 [1]	IC50 [2]
O=C(CN1C[C@@H]2C[C@@](O)(Cc3ccccc3)C[C@@H]2C1)c1ccc2[nH]nnc2c1 [Example 167, 2-[(3aR,5R,6aS)-5-benzyl-5-hydroxy-octahydrocyclopenta[c]pyrrol-2-yl]-1-(1H-1,2,3-benzotriazol-5-yl)ethan-1-one]	> 10 µM	10 µM
CC(C)(C)c1ccc([C@]2(O)C[C@H]3CN(C(=O)Nc4cccc(Cl)c4)C[C@H]3C2)cc1 [Example 56, 5-(4-tert-butylphenyl)-N-(3-chlorophenyl)-5-hydroxy-octahydrocyclopenta[c] pyrrole-2-carboxamide]	> 10 µM	10 µM
O=C(CCN1C[C@@H]2C[C@@](O)(c3ccccc3)C[C@@H]2C1)c1ccc(O)cc1 [Example 97, 3-(5-hydroxy-5-phenylhexahydrocyclo-penta[c]pyrrol-2(1H)-yl)-1-(4-hydroxyphenyl)propan-1-one]	> 10 µM	10 µM
O=C(CN1C[C@@H]2C[C@@](O)(CC3CCCCC3)C[C@@H]2C1)c1ccc(O)cc1 [Example 205, 2-[(3aR,5R,6aS)-5-(cyclohexylmethyl)-5-hydroxy-octahydrocyclopenta[c]pyrrol-2-yl]-1-(4-hydroxyphenyl)ethan-1-one]	0.1 to 1 µM	0.346 µM
COc1ccc(NC(=O)N2C[C@H]3C[C@@H](c4ccccc4)C[C@H]3C2)cc1 [Example 99, 2 N-(4-methoxyphenyl)-5-phenylhexahydrocyclo-penta[c]pyrrole-2(1H)-carboxamide]	> 10 µM	10 µM
O=C(Nc1ccc(Cl)c(C(F)(F)F)c1)N1C[C@@H]2C[C@@](O)(Cc3ccccc3)C[C@@H]2C1 [Example 120, (3aR,5r,6aS)-5-benzyl-N-(4-chloro-3-(trifluoromethyl)phenyl)-5-hydroxyhexahydrocyclo-penta[c]pyrrole-2(1H)-carboxamide]	> 10 µM	10 µM
O=C(CN1C[C@@H]2C[C@@](O)(Cc3ccccc3)C[C@@H]2C1)c1ccc(O)c(F)n1 [Example 190, 2-((3aR,5r,6aS)-5-benzyl-5-hydroxyhexahydrocyclo-penta[c]pyrrol-2(1H)-yl)-1-(6-fluoro-5-hydroxypyridin-2-yl)ethanone]	> 10 µM	10 µM
COc1ccc(C[C@]2(O)C[C@H]3CN(CC(=O)c4ccc(O)cc4)C[C@H]3C2)cc1 [Example 184, 2-[(3aR,5R,6aS)-5-hydroxy-5-[(4-methoxyphenyl)methyl]-octahydrocyclopenta[c]pyrrol-2-yl]-1-(4-hydroxyphenyl)ethan-1-one]	< 0.1 µM	0.0433 µM
COc1cccc(C[C@]2(O)C[C@H]3CN(CC(=O)c4ccc(O)cc4)C[C@H]3C2)c1 [Example 194, 2-((3aR,5r,6aS)-5-hydroxy-5-(3-meth-oxybenzyl)hexahydro-cyclopenta[c]pyrrol-2(1H)-yl)-1-(4-hydroxyphenyl)ethanone]	< 0.1 µM	0.0981 µM
O=C(CN1C[C@@H]2C[C@@](O)(Cc3ccccc3)C[C@@H]2C1)c1cccc(-c2ccc(F)cc2)c1 [Example 274, 2-((3aR,5r,6aS)-5-benzyl-5-hydroxyhexahydrocyclo-penta[c]pyrrol-2(1H)-yl)-1-(4′-fluoro-[1,1′-biphenyl]-3-yl)ethanone]	> 10 µM	10 µM
O=C(CN1C[C@@H]2C[C@@](O)(Cc3ccccc3)C[C@@H]2C1)c1cc(F)c(O)c(F)c1 [Example 159, 2-((3aR,5r,6aS)-5-benzyl-5-hydroxyhexahydrocyclo-penta[c]pyrrol-2(1H)-yl)-1-(3,5-difluoro-4-hydroxyphenyl)ethanone]	> 10 µM	11.6 µM
O=C(CN1C[C@@H]2C[C@@](O)(Cc3ccccc3)C[C@@H]2C1)c1ccc(Cl)nc1 [Example 155, 2-((3aR,5r,6aS)-5-benzyl-5-hydroxyhexahydrocyclo-penta[c]pyrrol-2(1H)-yl)-1-(6-chloropyridin-3-yl)ethanone]	> 10 µM	10 µM
O=C(Nc1ccc(F)cc1)N1C[C@H]2C[C@@H](c3ccccc3)C[C@H]2C1 [Example 101, N-(4-fluorophenyl)-5-phenyl-octahydrocylcopenta[c] pyrrole-2-carboxamide]	> 10 µM	10 µM
Cc1cccc(-c2ccc(C(=O)CN3C[C@@H]4C[C@@](O)(Cc5ccccc5)C[C@@H]4C3)cc2)c1 [Example 264, 2-((3aR,5r,6aS)-5-benzyl-5-hydroxyhexahydrocyclo-penta[c]pyrrol-2(1H)-yl)-1-(3′-methyl-[1,1′-biphenyl]-4-yl)ethanone]	> 10 µM	10 µM
O=C(CN1C[C@@H]2C[C@@](O)(CC3CC3)C[C@@H]2C1)c1ccc(O)cc1 [Example 210, 2-((3aR,5r,6aS)-5-(cyclopropylmethyl)-5-hydroxyhexahydrocyclo-penta[c]pyrrol-2(1H)-yl)-1-(4-hydroxyphenyl)ethanone]	> 10 µM	10 µM
